What was measured:
Format in all cases: in vivo, mouse
cGMP = test: Determination of basal cGMP levels in penis (enzyme immunoassay); details: SCD mice, haptoglobin treatment, vs SCD-vehicle, P<0.05
Procedure: (§1) All mice strains were originally purchased from Jackson Laboratories (Bar Harbor, ME). Characterization and breeding were performed at the Multidisciplinary Center for the Investigation of Biological Science in Laboratory Animals of University of Campinas. C57BL/6 male mice (wild-type, WT) and Berkeley transgenic SCD mice, aged 3 to 4 months-old, were used. Mice were housed three per cage on a 12 h light-dark cycle. SCD male mice were treated with treatment with haptoglobin (400 mg/kg, subcutaneous) or vehicle of Monday, Wednesday and Friday for a period of 1 month (24).
Quantitative assays for cGMP were performed using a commercial enzyme immunoassay kit (Cayman Chemical Cyclic GMP EIA kit, Ann Arbor, MI, USA). For penile cGMP content, frozen penile tissue was homogenized in 5% trichloroacetic acid and centrifuged. TCA was extracted from the supernatant with three washes of water-saturated ether. cGMP was expressed as pmol/mg tissue.

[1] = system: corpus cavernosum strips from SCD mice; test: Concentration-response relaxation curves to ACh and SNP in cavernosal strips pre-contracted with phenylephrine
Procedure: as §1
(§2) Strips of mouse corpus cavernosum were mounted in a 7-ml organ system containing Krebs solution at 37° C., continuously bubbled with a mixture of 95% O2 and 5% CO2 (pH 7.4), and suspended between two metal hooks. One hook was connected to a force transducer and the other acted as a fixed attachment point. Tissues were allowed to equilibrate for 60 min under a resting tension of 2.5 mN. Isometric force was recorded using a PowerLab 400™ data acquisition system (Software LabChart, version 7.0, AD Instrument, MA, USA). Cumulative concentration-response curves were constructed for the muscarinic agonist acetylcholine (ACh; 10^−9 to 10^−5 M) and sodium nitroprusside (SNP; 10^−8 to 10^−4 M) in cavernosal strips pre-contracted with phenylephrine (10^−5 M). Cumulative concentration-response curves to the contractile agent phenylephrine (α1-adrenergic receptor agonist, 10^−8 to 3×10^−4 M) and KCl (3×10^−4 to 3×10^−1 M) were obtained in cavernosal strips. Nonlinear regression analysis to determine the pEC50 was carried out using GraphPad Prism (GraphPad Software, San Diego, CA, USA).

eNOS = test: Western blot of penis homogenates, eNOS; details: SCD mice, haptoglobin 400 mg/kg s.c. 1 month; normalized to β-actin; P<0.05
Procedure: as §1
(§3) Corpus cavernosum tissue was homogenized in lysis buffer and centrifuged at 12,000 g for 20 minutes at 4° C. Homogenates containing […] total proteins were run on 4-20% Tris-HCl gels (Bio-Rad Laboratories, Hercules, CA, USA) and transferred to a nitrocellulose membrane. Nonfat dry milk 5% (Bio-Rad) in Tris-buffered saline/Tween was used for 1 hour at 24° C. to block nonspecific binding sites. […] Densitometry was analyzed using the Image J Software (National Institute of Health, Bethesda-MD, USA). Quantified densitometry results were normalized to β-actin. Quantified densitometry results of eNOS phosphorylated at Ser1177 were normalized to total eNOS.

ROCK1 = test: Western blot of penis homogenates, ROCK1; details: SCD mice, haptoglobin 400 mg/kg s.c. 1 month; compared to WT-vehicle
Procedure: as §1, §3

[2] = system: corpus cavernosum strips from SCD mice; test: Concentration-response contraction curves to phenylephrine and KCl in cavernosal strips; details: SCD mice treated with haptoglobin 400 mg/kg s.c. 1 month, mean ± SEM
Procedure: as §1
as §2, with “Cumulative concentration-response curves to the contractile agent phenylephrine (α1-adrenergic receptor agonist, 10^−8 to 3×10^−4 M) and KCl (3×10^−4 to 3×10^−1 M) were obtained in cavernosal strips. Nonlinear regression analysis to determine the pEC50 was carried out using GraphPad Prism (GraphPad Software, San Diego, CA, USA).” left out

[3] = system: NADPH oxidase subunit gp91phox; test: Western blot of penis homogenates, gp91phox; details: SCD mice, haptoglobin 400 mg/kg s.c. 1 month; normalized to β-actin
Procedure: as §1, §3

ROCK2 = test: Western blot of penis homogenates, ROCK2; details: SCD mice, haptoglobin 400 mg/kg s.c. 1 month; normalized to β-actin
Procedure: as §1, §3

p-eNOS (Ser-1177) = test: Western blot of penis homogenates, p-eNOS (Ser-1177); details: SCD mice, haptoglobin 400 mg/kg s.c. 1 month; normalized to eNOS; P<0.05
Procedure: as §1, §3

3-nitrotyrosine = test: Western blot of penis homogenates, 3-nitrotyrosine; details: SCD mice, haptoglobin 400 mg/kg s.c. 1 month, vs SCD-vehicle
Procedure: as §1, §3

nNOS = test: Western blot of penis homogenates, nNOS; details: SCD mice, haptoglobin 400 mg/kg s.c. 1 month; normalized to β-actin
Procedure: as §1, §3

[4] = system: corpus cavernosum strips from SCD mice; test: Electrical-field stimulation (EFS)-induced nitrergic relaxations of cavernosal strips; details: 2-32 Hz, guanethidine and atropine pretreated strips, haptoglobin 400 mg/kg s.c. 1 month
Procedure: as §1
EFS was applied on cavernosal strips placed between two platinum ring electrodes connected to a Grass S88 stimulator (Astro-Med Industrial Park, RI, USA). EFS was conducted at 50 V, 1 ms pulse width and trains of stimuli lasting 10 sec at varying frequencies. In order to study the nitrergic cavernosal relaxations, tissues were pretreated with guanethidine (3×10^−5 M; to deplete the catecholamine stores of adrenergic fibers) and atropine (10^−6 M; to produce muscarinic antagonism) for 30 minutes prior to pre-contraction with phenylephrine (10^−5 M). When a stable contraction level was attained, a series of EFS-induced relaxations were constructed (2-32 Hz).

4-HNE = test: Western blot of penis homogenates, 4-HNE; details: SCD mice, haptoglobin 400 mg/kg s.c. 1 month, vs SCD-vehicle
Procedure: as §1, §3

PDE5 = test: Western blot of penis homogenates, PDE5; details: SCD mice, haptoglobin 400 mg/kg s.c. 1 month, vs SCD-vehicle
Procedure: as §1, §3

Haptoglobin: Human haptoglobin (Hp) solution, a kind gift from CSL Behring; plasma glycoprotein that binds free hemoglobin
Increase of basal cGMP levels in penis (cGMP): approximately 72% | Effect of treatment on raised SNP pEC50 value ([1]; SCD mice, haptoglobin 400 mg/kg s.c., P<0.05): reversed | Effect of treatment on Emax produced by SNP ([1]; SCD mice, haptoglobin 400 mg/kg s.c., vs SCD-vehicle): reduced | Effect of treatment on Emax values of ACh ([1]; SCD mice, haptoglobin 400 mg/kg s.c., vs SCD-vehicle, P<0.05): reduced | Effect on potency (pEC50) for ACh among the groups ([1]; WT-vehicle, SCD-vehicle, SCD-haptoglobin): No significant differences | pEC50 of ACh relaxation curve, SCD-Haptoglobin ([1]; agonist ACh, cavernosal strips from SCD mice treated with haptoglobin 400 mg/kg s.c. Mon/Wed/Fri for 1 month, mean ± SEM): 7.12 | Emax (%) of ACh relaxation curve, SCD-Haptoglobin ([1]; agonist ACh, relative to phenylephrine (10^-5 M) contraction = 100%, SCD mice, haptoglobin 400 mg/kg s.c. 3x/week, 1 month, mean ± SEM): 42 ± 6 % | pEC50 of SNP relaxation curve, SCD-Haptoglobin ([1]; agonist SNP, cavernosal strips from SCD mice treated with haptoglobin 400 mg/kg s.c. Mon/Wed/Fri for 1 month, mean ± SEM): 6.08 | Emax (%) of SNP relaxation curve, SCD-Haptoglobin ([1]; agonist SNP, relative to phenylephrine (10^-5 M) contraction = 100%, SCD mice, haptoglobin 400 mg/kg s.c. 3x/week, 1 month, mean ± SEM): 78 ± 4% | Protein level of eNOS in penis (eNOS): normalized | Protein expression of ROCK1 in penis (ROCK1): not modified | Emax of KCl-induced contraction ([2]; KCl, receptor-independent): 0.30±0.07 mN | Emax of phenylephrine-induced contraction ([2]; phenylephrine 10^-8 to 3x10^-4 M): 0.79±0.11 mN | Protein levels of gp91phox in penis [3]: fully restored | Protein levels of ROCK2 in penis (ROCK2): fully restored | Protein level of p-eNOS (Ser-1177) in penis (p-eNOS (Ser-1177)): normalized | Reduction of protein level of 3-nitrotyrosine in penile tissue (3-nitrotyrosine): approximately 27% | Protein expression of nNOS in penis (nNOS): not modified | Effect of treatment on EFS-induced relaxant responses [4]: reduced | Reduction of protein level of 4-HNE in penile tissue (4-HNE): ~28% | Increase of protein level of PDE5 in penis (PDE5): approximately 52%

— patent publication US20260069657A1, “Haptoglobulin for Use in Treating or Preventing Exaggerated Erectile Response or Erectile Dysfunction” (CSL Behring AG, priority 2022, published 2026)
